Test results taken from patent publication US9682995B2, “Amino-substituted isothiazoles” (BAYER PHARMA AKTIENGESELLSCHAFT, priority 2013, dated 2017).

What was measured:
human Bub1 = human Bub1 (Homo sapiens (Human), UniProt O43683); experiment: Bub1 kinase assay (TR-FRET); type: biochemical; settings: 10 μM ATP; read-out: Bub1 avg (IC50 [mol/l])
Excerpt: Bub1-inhibitory activity of compounds of the present invention was quantified employing the Bub1 TR-FRET assay as described in the following paragraphs.
N-terminally His6-tagged recombinant catalytic domain of human Bub1 (amino acids 704-1085), expressed in insect cells (Hi5) and purified by Ni-NTA affinity chromatography and subsequent size exclusion chromatography, was used as enzyme. As substrate for the kinase reaction the biotinylated peptide biotin-Ahx-VLLPKKSFAEPG (C-terminus in amid form) was used which can be purchased e.g. form the company Biosyntan (Berlin, Germany).
For the assay 50 nl of a 100 fold concentrated solution of the test compound in DMSO was pipetted into a black low volume 384 well microtiter plate (Greiner Bio-One, Frickenhausen, Germany), 2 μl of a solution of Bub1 in aqueous assay buffer [50 mM Tris/HCl pH 7.5, 10 mM magnesium chloride (MgCl2), 200 mM potassium chloride (KCl), 1.0 mM dithiothreitol (DTT), 0.1 mM sodium ortho-vanadate, 1% (v/v) glycerol, 0.01% (w/v) bovine serum albumine (BSA), 0.005% (v/v) Trition X-100 (Sigma), 1× Complete EDTA-free protease inhibitor mixture (Roche)] were added and the mixture was incubated for 15 min at 22° C. to allow pre-binding of the test compounds to the enzyme before the start of the kinase reaction. Then the kinase reaction was started by the addition of 3 μl of a solution of adenosine-tri-phosphate (ATP, 16.7 μM=>final conc. in the 5 μl assay volume is 10 μM) and substrate (1.67 μM=>final conc. in the 5 μl assay volume is 1 μM) in assay buffer and the resulting mixture was incubated for a reaction time of 60 min at 22° C. The concentration of Bub1 was adjusted depending of the activity of the enzyme lot and was chosen appropriate to have the assay in the linear range, typical concentrations were in the range of 200 ng/ml. The reaction was stopped by the addition of 5 μl of a solution of TR-FRET detection reagents (0.2 μM streptavidine-XL665 [Cisbio Bioassays, Codolet, France] and 1 nM anti-phosho-Serine antibody [Merck Millipore, cat. #35-001] and 0.4 nM LANCE EU-W1024 labeled anti-mouse IgG antibody [Perkin-Elmer, product no. AD0077, as an alternative a Terbium-cryptate-labeled anti-mouse IgG antibody from Cisbio Bioassays can be used]) in an aqueous EDTA-solution (50 mM EDTA, 0.2% (w/v) bovine serum albumin in 100 mM HEPES pH 7.5).
The resulting mixture was incubated 1 h at 22° C. to allow the formation of complex between the phosphorylated biotinylated peptide and the detection reagents. Subsequently the amount of phosphorylated substrate was evaluated by measurement of the resonance energy transfer from the Eu-chelate to the streptavidine-XL. Therefore, the fluorescence emissions at 620 nm and 665 nm after excitation at 350 nm was measured in a TR-FRET reader, e.g. a Rubystar or Pherastar (both from BMG Labtechnologies, Offenburg, Germany) or a Viewlux (Perkin-Elmer). The ratio of the emissions at 665 nm and at […] was taken as the measure for the amount of phosphorylated substrate. The data were normalised (enzyme reaction without inhibitor=0% inhibition, all other assay components but no enzyme=100% inhibition).

HeLa = experiment: Proliferation assay (crystal violet), HeLa; type: cell-based; settings: Homo sapiens, 96 h, 4 days, read-out: Inhibition of proliferation IC50 HeLa
Method: Cultivated tumor cells (cells were ordered from ATCC, except HeLa-MaTu and HeLa-MaTu-ADR, which were ordered from EPO-GmbH, Berlin) were plated at a density of 1000 to 5000 cells/well, depending on the growth rate of the respective cell line, in a 96-well multititer plate in 200 μL of their respective growth medium supplemented 10% fetal calf serum. After 24 hours, the cells of one plate (zero-point plate) were stained with crystal violet (see below), while the medium of the other plates was replaced by fresh culture medium (200 μl), to which the test substances were added in various concentrations (0 μM, as well as in the range of 0.001-10 μM; the final concentration of the solvent dimethyl sulfoxide was 0.5%). The cells were incubated for 4 days in the presence of test substances. Cell proliferation was determined by staining the cells with crystal violet: the cells were fixed by adding 20 μl/measuring point of an 11% glutaric aldehyde solution for 15 minutes at room temperature. After three washing cycles of the fixed cells with water, the plates were dried at room temperature. The cells were stained by adding 100 μl/measuring point of a 0.1% crystal violet solution (pH 3.0). After three washing cycles of the stained cells with water, the plates were dried at room temperature. The dye was dissolved by adding 100 μl/measuring point of a 10% acetic acid solution. Absorption was determined by photometry at a wavelength of 595 nm. The change of cell number, in percent, was calculated by normalization of the measured values to the absorption values of the zero-point plate (=0%) and the absorption of the untreated (0 μm) cells (=100%). The IC50 values were determined by means of a 4 parameter fit.

Chain of human Bub1 (O43683 704-1085): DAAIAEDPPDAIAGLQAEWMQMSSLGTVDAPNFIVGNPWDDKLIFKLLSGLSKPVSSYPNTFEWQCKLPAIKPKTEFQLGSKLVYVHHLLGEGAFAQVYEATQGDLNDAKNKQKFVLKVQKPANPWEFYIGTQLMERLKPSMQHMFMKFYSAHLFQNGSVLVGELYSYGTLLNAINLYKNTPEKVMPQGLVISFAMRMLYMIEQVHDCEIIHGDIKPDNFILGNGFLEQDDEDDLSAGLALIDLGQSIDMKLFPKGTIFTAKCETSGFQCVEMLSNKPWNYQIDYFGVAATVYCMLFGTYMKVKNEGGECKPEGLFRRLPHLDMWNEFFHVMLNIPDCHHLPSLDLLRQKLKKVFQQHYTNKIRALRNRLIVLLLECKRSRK

For `Cc1nsc(Nc2cnc(C(=O)N(C)C)cn2)c1C(=O)Nc1ccc(F)c(F)c1` [Example 109, 5-({4-[(3,4-Difluorophenyl)carbamoyl]-3-methyl-1,2-thiazol-5-yl}amino)-N,N-dimethylpyrazine-2-carboxamide], the IC50 (human Bub1) was > 20 µM and the IC50 (HeLa) was 5 µM.

`CCc1ccccc1NC(=O)c1c(C)nsc1Nc1ncccc1C#N` [Example 8, 5-[(3-Cyanopyridin-2-yl)amino]-N-(2-ethylphenyl)-3-methyl-1,2-thiazole-4-carboxamide] was tested, and the IC50 (human Bub1) was > 20 µM and the IC50 (HeLa) was > 10 µM.

In the case of `CCc1ccccc1NC(=O)c1c(C)nsc1Nc1cnccn1` [Example 1, N-(2-Ethylphenyl)-3-methyl-5-(pyrazin-2-ylamino)-1,2-thiazole-4-carboxamide], the IC50 (human Bub1) is reported as > 20 µM and the IC50 (HeLa) is reported as 8.8 µM.

With `CCNC(=O)c1csc(Nc2snc(C)c2C(=O)Nc2ccc(F)c(F)c2)n1` [Example 99, N-(3,4-Difluorophenyl)-5-{[4-(ethylcarbamoyl)-1,3-thiazol-2-yl]amino}-3-methyl-1,2-thiazole-4-carboxamide] the IC50 (human Bub1) was > 20 µM and the IC50 (HeLa) was 3.3 µM.

With `CCc1ccccc1NC(=O)c1c(C)nsc1Nc1nccc(OC)n1` [Example 16, N-(2-Ethylphenyl)-5-[(4-methoxypyrimidin-2-yl)amino]-3-methyl-1,2-thiazole-4-carboxamide] the IC50 (human Bub1) was > 20 µM and the IC50 (HeLa) was > 10 µM.

In the case of `CCc1ccccc1NC(=O)c1c(C)nsc1Nc1cc(NC)ncn1` [Example 15, N-(2-Ethylphenyl)-3-methyl-5-{[6-(methylamino)pyrimidin-4-yl]amino}-1,2-thiazole-4-carboxamide], the IC50 (human Bub1) is reported as > 20 µM and the IC50 (HeLa) is reported as > 10 µM.

For `CCc1ccccc1NC(=O)c1c(C)nsc1Nc1nc2ccccc2o1` [Example 11, 5-(1,3-Benzoxazol-2-ylamino)-N-(2-ethylphenyl)-3-methyl-1,2-thiazole-4-carboxamide], the IC50 (human Bub1) was 3.8 µM and the IC50 (HeLa) was 3.7 µM.

In the case of `Cc1nsc(Nc2cnc3ccccc3n2)c1C(=O)Nc1ccc(OC2CCCCC2)nc1` [Example 115, N-[6-(Cyclohexyloxy)pyridin-3-yl]-3-methyl-5-(quinoxalin-2-ylamino)-1,2-thiazole-4-carboxamide], the IC50 (human Bub1) is reported as > 20 µM and the IC50 (HeLa) is reported as 1.3 µM.

With `COc1ncc(NC(=O)c2c(C)nsc2Nc2ccc(C#N)cn2)cc1C` [Example 120, 5-[(5-Cyanopyridin-2-yl)amino]-N-(6-methoxy-5-methylpyridin-3-yl)-3-methyl-1,2-thiazole-4-carboxamide] the IC50 (human Bub1) was > 20 µM and the IC50 (HeLa) was 1.9 µM.

For `COc1ccc(NC(=O)c2c(C)nsc2Nc2cccc(C#N)n2)cn1` [Example 37, 5-[(6-Cyanopyridin-2-yl)amino]-N-(6-methoxypyridin-3-yl)-3-methyl-1,2-thiazole-4-carboxamide], the IC50 (human Bub1) was > 20 µM and the IC50 (HeLa) was > 10 µM.

For `CCc1ccccc1NC(=O)c1c(C)nsc1Nc1ncnc2ccccc12` [Example 10, N-(2-Ethylphenyl)-3-methyl-5-(quinazolin-4-ylamino)-1,2-thiazole-4-carboxamide], the IC50 (human Bub1) was > 20 µM and the IC50 (HeLa) was 7.2 µM.

`COc1ccc(NC(=O)c2c(C)nsc2Nc2nccnc2C#N)cn1` [Example 24, 5-[(3-Cyanopyrazin-2-yl)amino]-N-(6-methoxypyridin-3-yl)-3-methyl-1,2-thiazole-4-carboxamide] was tested, and the IC50 (human Bub1) was 3.1 µM and the IC50 (HeLa) was > 10 µM.

With `Cc1nsc(Nc2cnc3ccccc3n2)c1C(=O)Nc1ccc(Oc2ccccc2)nc1` [Example 112, 3-Methyl-N-(6-phenoxypyridin-3-yl)-5-(quinoxalin-2-ylamino)-1,2-thiazole-4-carboxamide] the IC50 (human Bub1) was > 20 µM and the IC50 (HeLa) was 2 µM.

With `Cc1nsc(Nc2cnc3ccccc3n2)c1C(=O)Nc1ccc(Oc2ccc(F)cc2F)nc1` [Example 113, N-[6-(2,4-Difluorophenoxy)pyridin-3-yl]-3-methyl-5-(quinoxalin-2-ylamino)-1,2-thiazole-4-carboxamide] the IC50 (human Bub1) was > 20 µM and the IC50 (HeLa) was 0.88 µM.

`Cc1nsc(Nc2cncc(C(=O)N3CCCC3)n2)c1C(=O)Nc1ccc(F)c(F)c1` [Example 106, N-(3,4-Difluorophenyl)-3-methyl-5-{[6-(pyrrolidin-1-ylcarbonyl)pyrazin-2-yl]amino}-1,2-thiazole-4-carboxamide] was tested, and the IC50 (human Bub1) was > 20 µM and the IC50 (HeLa) was 3.7 µM.

With `Cc1nsc(Nc2ccc(C#N)cn2)c1C(=O)Nc1ccc(OC(C)C)nc1` [Example 110, 5-[(5-Cyanopyridin-2-yl)amino]-N-(6-isopropoxyridin-3-yl)-3-methyl-1,2-thiazole-4-carboxamide] the IC50 (human Bub1) was > 20 µM and the IC50 (HeLa) was 1.5 µM.

`CCOC(=O)c1coc(Nc2snc(C)c2C(=O)Nc2ccc(F)c(F)c2)n1` [Example 98, Ethyl 2-({4-[(3,4-difluoro-phenyl)carbamoyl]-3-methyl-1,2-thiazol-5-yl}amino)-1,3-oxazole-4-carboxylate] was tested, and the IC50 (human Bub1) was > 20 µM and the IC50 (HeLa) was 10 µM.

With `COc1ccc(NC(=O)c2c(C)nsc2Nc2ccc(C#N)cn2)cn1` [Example 39, 5-[(5-Cyanopyridin-2-yl)amino]-N-(6-methoxypyridin-3-yl)-3-methyl-1,2-thiazole-4-carboxamide] the IC50 (human Bub1) was > 20 µM and the IC50 (HeLa) was 6.7 µM.

With `CCOC(=O)c1cnc(Nc2snc(C)c2C(=O)Nc2ccc(OC)nc2)s1` [Example 29, Ethyl 2-({4-[(6-methoxypyridin-3-yl)carbamoyl]-3-methyl-1,2-thiazol-5-yl}amino)-1,3-thiazole-5-carboxylate] the IC50 (human Bub1) was > 20 µM and the IC50 (HeLa) was 2.8 µM.

With `CCc1ccccc1NC(=O)c1c(C)nsc1Nc1nc2ccccc2s1` [Example 14, 5-(1,3-Benzothiazol-2-ylamino)-N-(2-ethylphenyl)-3-methyl-1,2-thiazole-4-carboxamide] the IC50 (human Bub1) was 8.59 µM and the IC50 (HeLa) was 1 µM.

With `COC(=O)c1cnc(Nc2snc(C)c2C(=O)Nc2ccc(F)c(F)c2)o1` [Example 97, Methyl 2-({4-[(3,4-difluoro-phenyl)carbamoyl]-3-methyl-1,2-thiazol-5-yl}amino)-1,3-oxazole-5-carboxylate] the IC50 (human Bub1) was > 20 µM and the IC50 (HeLa) was 10 µM.

`COc1ccc(Oc2ccc(NC(=O)c3c(C)nsc3Nc3cnc4ccccc4n3)cn2)cc1` [Example 116, N-[6-(4-Methoxyphenoxy)pyridin-3-yl]-3-methyl-5-(quinoxaline-2-ylamino)-1,2-thiazole-4-carboxamide] was tested, and the IC50 (human Bub1) was > 20 µM and the IC50 (HeLa) was 3.2 µM.

With `CCOC(=O)c1cnc(Nc2snc(C)c2C(=O)Nc2ccc(F)c(F)c2)o1` [Example 96, Ethyl 2-({4-[(3,4-difluorophenyl)carbamoyl]-3-methyl-1,2-thiazol-5-yl}amino)-1,3-oxazole-5-carboxylate] the IC50 (human Bub1) was > 20 µM and the IC50 (HeLa) was 10 µM.

`COc1ccc(NC(=O)c2c(C)nsc2Nc2ncccc2C#N)cn1` [Example 36, 5-[(3-Cyanopyridin-2-yl)amino]-N-(6-methoxypyridin-3-yl)-3-methyl-1,2-thiazole-4-carboxamide] was tested, and the IC50 (HeLa) was 9.9 µM.
